Reference: the NIST ThermoML archive (doi:10.1016/j.jct.2018.02.022)

Experiment: xn = mol fraction of the nth substance listed
Settings: 92.3 kPa, Liquid; for viscosity: Concentric cylinders viscometry; for speed of sound: Frequency=3 MHz, Single path-length method; for mass density: Vibrating tube method

OCC(O)CO [glycerol] + O
Settings | mass density, 293.15 K [kg/m3] | mass density, 298.15 K [kg/m3] | speed of sound, 293.15 K [m/s] | speed of sound, 298.15 K [m/s] | viscosity, 293.15 K [mPa·s] | viscosity, 298.15 K [mPa·s]
x1 = 0.011 | 1010.85 | 1009.54 | 1505.6 | 1518.5 | – | –
x1 = 0.021 | 1021.71 | 1020.28 | 1526.4 | 1538 | – | –
x1 = 0.0302 | 1031.17 | 1029.64 | 1544.8 | 1555.4 | – | –
x1 = 0.0398 | 1040.58 | 1038.94 | 1563.4 | 1572.8 | – | –
x1 = 0.0546 | 1054.09 | 1052.3 | 1590.1 | 1598 | – | –
x1 = 0.0651 | 1062.84 | 1060.94 | 1608.2 | 1615 | – | –
x1 = 0.0721 | 1068.61 | 1066.65 | 1619.8 | 1625.8 | – | –
x1 = 0.0793 | 1073.97 | 1071.95 | 1630.9 | 1636.2 | – | –
x1 = 0.0898 | 1081.8 | 1079.69 | 1646.9 | 1651.3 | – | –
x1 = 0.0998 | 1088.82 | 1086.64 | 1661.3 | 1664.9 | 3.277 | 2.631
x1 = 0.1198 | 1101.67 | 1099.36 | 1687.5 | 1689.5 | – | –
x1 = 0.1549 | 1121.66 | 1119.16 | 1727.7 | 1727.3 | 5.662 | 4.416
x1 = 0.2024 | 1143.7 | 1141.01 | 1770.2 | 1767.4 | – | –
x1 = 0.2534 | 1162.81 | 1159.99 | 1804.7 | 1800 | 13.67 | 10.4
x1 = 0.2959 | 1176 | 1173.1 | 1826.9 | 1821 | 19.73 | 14.91
x1 = 0.3504 | 1190.05 | 1187.09 | 1846.7 | 1841.6 | 30.2 | 22.91
x1 = 0.4006 | 1200.88 | 1197.86 | 1863.9 | 1856.1 | 45.08 | 33.73
x1 = 0.4477 | 1209.47 | 1206.42 | 1874.9 | 1866.5 | 63.42 | 46.86
x1 = 0.4983 | 1217.48 | 1214.4 | 1884.4 | 1875.4 | 90.21 | 65.72
x1 = 0.5471 | 1224.33 | 1221.23 | 1891.7 | 1882.4 | 124.25 | 89.21
x1 = 0.6046 | 1231.03 | 1227.93 | 1898.3 | 1888.6 | 182.07 | 126.31
x1 = 0.6469 | 1235.49 | 1232.4 | 1902.4 | 1892.3 | 234.23 | 163.54
x1 = 0.7006 | 1240.52 | 1237.44 | 1906.8 | 1896.3 | 322.03 | 220.14
x1 = 0.7465 | 1244.44 | 1241.37 | 1910.2 | 1899.4 | 419.77 | 283.91
x1 = 0.7942 | 1248.13 | 1245.06 | 1913.5 | 1902.3 | 535.66 | 358.24
x1 = 0.8497 | 1251.95 | 1248.81 | 1916.8 | 1905.2 | 705.87 | 463.79
x1 = 0.8993 | 1254.99 | 1251.84 | 1919.1 | 1907 | 897.16 | 584.38
x1 = 0.9196 | 1256.26 | 1253.1 | 1920.6 | 1908.2 | – | –
x1 = 0.9322 | 1256.97 | 1253.82 | 1921.3 | 1908.7 | – | –
x1 = 0.9462 | 1257.78 | 1254.68 | 1922.1 | 1909.8 | 1125.1 | 725.78
x1 = 0.9562 | 1258.3 | 1255.2 | 1922.6 | 1909.8 | – | –
x1 = 0.9855 | 1259.96 | 1256.87 | 1924.3 | 1911 | – | –
x1 = 1 | 1260.73 | 1257.65 | 1925.5 | 1911.9 | 1408.4 | 900.44
